US4303674A, “Substituted decalins, their preparation and use” (Beecham Group Limited, priority 1979, dated 1981)
“Also recorded” adds a separate entry of the source.

Tests used:
[1] = test system: croton oil-induced inflammation of the rat ear; assay: topical anti-inflammatory model, croton oil irritant solution on rat ears (based on Fregnan & Torsello 1975); assay type: in vivo, Rats, Charles River Wistar strain, male; settings: for reduction of the increase in ear weight / activity (in words): topical
Protocol: 1. Compounds (5) and (6) were tested for anti-inflammatory activity in a topical model based on that described by Fregnan G. B. & Torsello, A. L. (1975) Current Therapeutic Research 17, No. 4, 375-381.
In the test the activity of the novel compounds was compared with that of naproxen. In outline the method is as follows:
Rats, Charles River Wistar strain, .male. 10/group. Weight range 220-260 g.
Irritant solution applied consists of 74% diethyl ether (20% pyridine, 5% dist. H2 O, 1% croton oil. 0.05 ml is placed on each ear, compound being included in the irritant solution on one ear. 6 hours later the ears are removed by cutting along the hairline and weighed.
-ve controls--no irritant solution.
+ve controls--irritant solution on both ears.

[2] = test system: cantharidin-induced inflammation of the rat ear; assay: anti-inflammatory test induced by the application of cantharidin to the rat ear (Boris & Hurley 1977); assay type: in vivo, male Wistar rats; settings: for Untreated Ear Wt mg ± s.e.: normal control 92.9, inflamed control 146.3; for Treated Ear Wt mg ± s.e.: normal control 95.0, inflamed control 162.0
Protocol: 2. Activity of Compound (5) in an anti-inflammatory test induced by the application of cantharidin to the rat ear
This model developed by Boris A and Hurley M., (1977) J. Invest. Dermatology, 68, 161-164 is claimed to be selective for the anti-inflammatory activity of corticosteroids. Groups of ten male Wistar rats received 0.05 ml per ear of a solution of 400 μg of cantharidin plus or minus compound in tetrahydrofuran. […]

[3] = test system: croton oil-induced inflammation of the ear; assay: croton oil model of topical anti-inflammatory activity, dose response (1% croton oil in tetrahydrofuran); assay type: in vivo, rat; settings: for Treated Ear Wt mg ± s.e.: normal control 98.5, inflamed control 126.1; for Untreated Ear Wt mg ± s.e.: normal control 99.1, inflamed control 118.7; for ED50: 1% croton oil in tetrahydrofuran
Description: 3. A direct comparison of the activity of Compound (12) and Compound (5) in the croton oil model of topical anti-inflammatory activity

[4] = 2 mg/rat, first experiment (compounds 5, 6, naproxen), -ve control 128.4, +ve control 163.2, 6 hours
[5] = 2 mg/rat, first experiment, -ve control 122.5, +ve control 151.8, 6 hours
[6] = 2 mg/rat, first experiment, 6 hours

SMILES	Mean weight of Treated Ear [1, 4]	Mean weight of Untreated Ear [1, 5]	Treated Ear, % in parentheses (reduction of ear weight increase vs +ve control) [1, 6]	Untreated Ear, % in parentheses (reduction of ear weight increase vs +ve control) [1, 6]	Untreated Ear Wt mg ± s.e. ([2]; 4 mg/ear)	Treated Ear Wt mg ± s.e. ([2]; 4 mg/ear)	Treated Ear % Inhibition ([2]; 4 mg/ear)	Untreated Ear % Inhibition ([2]; 4 mg/ear)	reduction of the increase in ear weight / activity (in words) [1]	Treated Ear Wt mg ± s.e. ([3]; 1 mg/ear)	Untreated Ear Wt mg ± s.e. ([3]; 1 mg/ear)	Treated Ear % Inhibition ([3]; 1 mg/ear)	Untreated Ear % Inhibition ([3]; 1 mg/ear)	Treated Ear Wt mg ± s.e. ([3]; 2 mg/ear)	Untreated Ear Wt mg ± s.e. ([3]; 2 mg/ear)	Treated Ear % Inhibition ([3]; 2 mg/ear)	Untreated Ear % Inhibition ([3]; 2 mg/ear)	Treated Ear Wt mg ± s.e. ([3]; 4 mg/ear)	Untreated Ear Wt mg ± s.e. ([3]; 4 mg/ear)	Treated Ear % Inhibition ([3]; 4 mg/ear)	also measured
COc1ccc2cc([C@H](C)C(=O)O)ccc2c1 [Naproxen, reference compound]	139.5 ± 3.0 m.g.	162.2 ± 4.9 m.g.	68%	-35%	145.0 mg	184.8 mg	-34%	2%													Mean weight of Treated Ear ([1]; 2 mg/rat, second experiment (with compound 12), -ve control 127.0, +ve control 152.2): 141.2 ± 3.7 m.g.; Mean weight of Untreated Ear ([1]; 2 mg/rat, second experiment, -ve control 130.1, +ve control 159.4): 155.9 ± 4.1 m.g.; Treated Ear, % in parentheses (reduction of ear weight increase vs +ve control) ([1]; 2 mg/rat, second experiment): 44%; Untreated Ear, % in parentheses (reduction of ear weight increase vs +ve control) ([1]; 2 mg/rat, second experiment): 12%
CC(=O)CCC1CCC2=CC(=O)C=CC2(C)C1 (stereo not shown) [Compound (6)]	134.3 ± 2.3 m.g.	159.1 ± 5.1 m.g.	83%	-25%					appeared equi-active with Compound (5)												
CC(=O)CCC1CCC2=CC(=O)CCC2(C)C1 (stereo not shown) [Compound (5), 4a-Methyl-6-(3'-oxobutyl)-2,3,4,4a,5,6,7,8-octahydro-2-naphthalenone]	135.4 ± 3.3 m.g.	169.0 ± 7.4 m.g.	80%	-59%	134.3 mg	140.5 mg	32%	22%	significantly reduced the increase in ear weight brought about by the irritant solution; also recorded: The activity was at the same dose as that of naproxen	124.5 ± 4.6 mg	119.9 ± 4.7 mg	6%	-6%	116.4 ± 3.8 mg	119.9 ± 5.1 mg	35%	-6%	108.2 ± 2.8 mg	115.5 ± 5.6 mg	65%	Untreated Ear % Inhibition ([3]; 4 mg/ear): 16%; ED50 [3]: 2.8 mg/ear
C[C@]12CCC(=O)C=C1CC[C@@H]1[C@@H]2[C@@H](O)C[C@@]2(C)[C@H]1CC[C@]2(O)C(=O)CO [Hydrocortisone]																					Untreated Ear Wt mg ± s.e. ([2]; 2 mg/ear): 142.0 mg; Treated Ear Wt mg ± s.e. ([2]; 2 mg/ear): 133.1 mg; Treated Ear % Inhibition ([2]; 2 mg/ear): 43%; Untreated Ear % Inhibition ([2]; 2 mg/ear): 8%
CC(=O)CCC1CCC2=CC(=O)CCC2C1 (stereo not shown) [Compound (12), 6-(3'-Oxobutyl)-2,3,4,4a,5,6,7,8-octahydronaphthalene-2-one]										116.1 ± 4.6 mg	112.6 ± 5.5 mg	36%	31%	109.8 ± 3.2 mg	117.0 ± 2.8 mg	59%	9%	106.3 ± 3.4 mg	120.6 ± 4.5 mg	72%	Mean weight of Treated Ear ([1]; 4 mg/rat, second experiment (compound 12), -ve control 127.0, +ve control 152.2): 136.9 ± 2.9 m.g.; Mean weight of Untreated Ear ([1]; 4 mg/rat, second experiment, -ve control 130.1, +ve control 159.4): 148.0 ± 3.9 m.g.; Treated Ear, % in parentheses (reduction of ear weight increase vs +ve control) ([1]; 4 mg/rat, second experiment): 61%; Untreated Ear, % in parentheses (reduction of ear weight increase vs +ve control) ([1]; 4 mg/rat, second experiment): 51%; Untreated Ear % Inhibition ([3]; 4 mg/ear): -10%; ED50 [3]: 1.6 mg/ear; potency relative to Compound (5) ([3]; dose response against 1% croton oil in tetrahydrofuran): of the order of two fold more potent than Compound (5)
